≈ marks a conversion by molar mass, not a printed value. Calls of active or inactive are those of the source. The rule behind the calls is not given here.
Experiments:
[1] = Resistance index, ratio of EC50 for wild type Hepatitis B virus to EC50 for Hepatitis B virus harboring […] transfected in human HepG2 cells measured after 6 days by qPCR analysis; type: functional; details: time 6 day
Hepatitis B virus [2] = assay: Antiviral activity against HBV infected in human HepG2.2.15 cells assessed as reduction in HBV DNA replication measured after 5 days by qPCR analysis; type: functional, organism-based; details: HepG2.2.15, 120 h
[3] = Cytotoxicity against human HepDE19 cells assessed as reduction in cell viability measured after 5 days by CCK-8 method; type: functional; details: HepDE19, 120 h, time 5 day
[4] = Selectivity index, ratio of CC50 for human HepDE19 cells assessed as reduction in cell viability to EC50 for HBV infected in human HepG2.2.15 cells assessed as reduction in HBV DNA replication; type: toxicity, cell-based; details: HBV-infected HepG2.2.15 cells (EC50)
[5] = Metabolic stability in mouse liver microsomes assessed as clearance at 1 uM preincubated for 10 mins and measured upto 30 mins in presence of NADPH generating system by LC-MS/MS analysis; type: ADME, Microsome; details: time < 40 min
[6] = Metabolic stability in human liver microsomes assessed as clearance at 1 uM preincubated for 10 mins and measured upto 30 mins in presence of NADPH generating system by LC-MS/MS analysis; type: ADME, Microsome; details: time < 40 min
[7] = Lyophilization solubility of the compound in phosphate buffer at pH 6.5 incubated for 1 hr under stirring condition and 2 hrs under shaking condition by HPLC-UV analysis; type: physicochemical
[8] = Half life in C57BL/6 mouse plasma at 1 mg/kg, iv administered as single dose measured upto 24 hrs by LC-MS/MS analysis; type: ADME, organism-based
[9] = Volume of distribution at steady state in C57BL/6 mouse plasma at 1 mg/kg, iv administered as single dose measured upto 24 hrs by LC-MS/MS analysis; type: ADME, organism-based; details: read-out: Vdss
[10] = Clearance in C57BL/6 mouse plasma at 1 mg/kg, iv administered as single dose measured upto 24 hrs by LC-MS/MS analysis; type: ADME, organism-based
[11] = Cmax in C57BL/6 mouse plasma at 3 mg/kg, po administered as single dose measured upto 24 hrs by LC-MS/MS analysis; type: ADME, organism-based; set-up: time < 24 hrs, dose 3 mg/kg, route po
[12] = AUC (0 to infinity) in C57BL/6 mouse plasma at 1 mg/kg, iv administered as single dose measured upto 24 hrs by LC-MS/MS analysis; type: ADME, organism-based; set-up: dose 1 mg/kg, time < 24 hrs, route iv
[13] = AUC (0 to infinity) in C57BL/6 mouse plasma at 3 mg/kg, po administered as single dose measured upto 24 hrs by LC-MS/MS analysis; type: ADME, organism-based; set-up: time < 24 hrs, dose 3 mg/kg, route po
[14] = Oral bioavailability in C57BL/6 mouse plasma at 3 mg/kg administered as single dose measured upto 24 hrs by LC-MS/MS analysis; type: ADME, organism-based
[15] = AUC (0 to infinity) in C57BL/6 mouse liver at 3 mg/kg, po administered as single dose measured upto 24 hrs by LC-MS/MS analysis; type: ADME, organism-based; set-up: dose 3 mg/kg, time < 24 hrs, route po
[16] = Ratio of AUC (0 to infinity) in liver to plasma of C57BL/6 mouse liver at 3 mg/kg, po administered as single dose measured upto 24 hrs by LC-MS/MS analysis; type: ADME, organism-based; details: read-out: Ratio AUC
[17] = Half life in C57BL/6 mouse plasma at 2 mg/kg, iv administered as single dose measured upto 24 hrs by LC-MS/MS analysis; type: ADME, organism-based
[18] = Volume of distribution at steady state in C57BL/6 mouse plasma at 2 mg/kg, iv administered as single dose measured upto 24 hrs by LC-MS/MS analysis; type: ADME, organism-based; details: read-out: Vdss
[19] = Clearance in C57BL/6 mouse plasma at 2 mg/kg, iv administered as single dose measured upto 24 hrs by LC-MS/MS analysis; type: ADME, organism-based
[20] = Cmax in C57BL/6 mouse plasma at 5 mg/kg, po administered as single dose measured upto 24 hrs by LC-MS/MS analysis; type: ADME, organism-based; set-up: dose 5 mg/kg, time < 24 hrs, route po
[21] = AUC (0 to infinity) in C57BL/6 mouse plasma at 2 mg/kg, iv administered as single dose measured upto 24 hrs by LC-MS/MS analysis; type: ADME, organism-based; set-up: dose 2 mg/kg, time < 24 hrs, route iv
[22] = AUC (0 to infinity) in C57BL/6 mouse plasma at 5 mg/kg, po administered as single dose measured upto 24 hrs by LC-MS/MS analysis; type: ADME, organism-based; set-up: time < 24 hrs, dose 5 mg/kg, route po
[23] = Oral bioavailability in C57BL/6 mouse plasma at 5 mg/kg administered as single dose measured upto 24 hrs by LC-MS/MS analysis; type: ADME, organism-based
[24] = AUC (0 to infinity) in C57BL/6 mouse liver at 5 mg/kg, po administered as single dose measured upto 24 hrs by LC-MS/MS analysis; type: ADME, organism-based; set-up: time < 24 hrs, dose 5 mg/kg, route po
[25] = Ratio of AUC (0 to infinity) in liver to plasma of C57BL/6 mouse liver at 5 mg/kg, po administered as single dose measured upto 24 hrs by LC-MS/MS analysis; type: ADME, organism-based; details: read-out: Ratio AUC
[26] = Plasma protein binding in mouse assessed as free fraction incubated for 5 hrs by LC-MS/MS analysis; type: ADME, cell-free
Hepatitis B virus [27] = assay: In vivo antiviral activity against AAV encapsidated HBV infected in C57BL/6 mouse model assessed as log reduction in serum HBV DNA level at 20 mg/kg, BID measured on day 2 by quantitative real-time PCR analysis; type: functional; details: time 2 day
Hepatitis B virus [28] = assay: In vivo antiviral activity against AAV encapsidated HBV infected in C57BL/6 mouse model assessed as log reduction in serum HBV DNA level at 20 mg/kg, BID measured on day 4 by quantitative real-time PCR analysis; type: functional; details: time 4 day
Hepatitis B virus [29] = assay: In vivo antiviral activity against AAV encapsidated HBV infected in C57BL/6 mouse model assessed as reduction in serum HBV DNA level at 20 mg/kg, BID measured on day 6 by quantitative real-time PCR analysis; type: functional, organism-based; details: time 6.0 day
[30] = Resistance index, ratio of EC50 for wild type Hepatitis B virus to EC50 for Hepatitis B virus harboring M204 V transfected in human HepG2 cells measured after 6 days by qPCR analysis; type: functional; details: time 6 day
[31] = Resistance index, ratio of EC50 for wild type Hepatitis B virus to EC50 for Hepatitis B virus harboring L180M/M204V transfected in human HepG2 cells measured after 6 days by qPCR analysis; type: functional; details: time 6 day
[32] = Resistance index, ratio of EC50 for wild type Hepatitis B virus to EC50 for Hepatitis B virus harboring A181T/N236T transfected in human HepG2 cells measured after 6 days by qPCR analysis; type: functional; details: time 6 day
[33] = Resistance index, ratio of EC50 for wild type Hepatitis B virus to EC50 for Hepatitis B virus harboring A181V/N236T transfected in human HepG2 cells measured after 6 days by qPCR analysis; type: functional; details: time 6 day
[34] = Resistance index, ratio of EC50 for wild type Hepatitis B virus to EC50 for Hepatitis B virus harboring A181T transfected in human HepG2 cells measured after 6 days by qPCR analysis; type: functional; details: time 6 day
[35] = Resistance index, ratio of EC50 for wild type Hepatitis B virus to EC50 for Hepatitis B virus harboring A181V transfected in human HepG2 cells measured after 6 days by qPCR analysis; type: functional; details: time 6 day
[36] = Resistance index, ratio of EC50 for wild type Hepatitis B virus to EC50 for Hepatitis B virus harboring N236T transfected in human HepG2 cells measured after 6 days by qPCR analysis; type: functional; details: time 6 day
[37] = Resistance index, ratio of EC50 for wild type Hepatitis B virus to EC50 for Hepatitis B virus harboring L180M/M204 V/A194T transfected in human HepG2 cells measured after 6 days by qPCR analysis; type: functional; details: time 6 day
[38] = Resistance index, ratio of EC50 for wild type Hepatitis B virus to EC50 for Hepatitis B virus harboring L180M/M204 V/S202G transfected in human HepG2 cells measured after 6 days by qPCR analysis; type: functional; details: time 6 day
[39] = Resistance index, ratio of EC50 for wild type Hepatitis B virus to EC50 for Hepatitis B virus harboring L180M/M204 V/M250 V/[…] transfected in human HepG2 cells measured after 6 days by qPCR analysis; type: functional; details: time 6 day
[40] = Resistance index, ratio of EC50 for wild type Hepatitis B virus to EC50 for Hepatitis B virus harboring L180M/M204 V/T184G/[…] transfected in human HepG2 cells measured after 6 days by qPCR analysis; type: functional; details: time 6 day
Hepatitis B virus [41] = assay: Inhibition of HBV replication transfected in human HepG2.2.15 cells assessed as inhibition of encapsidated DNA formation in cell lysate incubated for 5 days by SDS-PAGE analysis; type: functional, organism-based; details: dose <= 10.0 µM, time 5.0 day
Hepatitis B virus [42] = assay: Inhibition of HBV replication transfected in human HepG2.2.15 cells assessed as assessed as induction of capsid degradation in cell lysate at upto 10 uM incubated for 5 days by SDS-PAGE analysis; type: functional, organism-based; details: time 5.0 day
Hepatitis B virus [43] = assay: Inhibition of HBV replication transfected in human HepG2.2.15 cells assessed as assessed as induction of total core protein degradation in cell lysate at upto 10 uM incubated for 5 days by SDS-PAGE analysis; type: functional, organism-based; details: time 5.0 day

| SMILES | Ratio EC50 [1] | EC50 (Hepatitis B virus [2]) | CC50 [3] | selectivity ratio [4] | CLhep predicted at 1 µM [5] | CLhep predicted at 1 µM [6] | solubility at 3 h [7] | half-life [17] | Vd [18] | clearance [19] | Cmax [20] | AUC(0-inf) [21] | AUC(0-inf) [22] | bioavailability [23] | AUC(0-inf) [24] | Kp at 24 h [25] | fraction unbound at 5 h [26] | further results |
| --- | --- | --- | --- | --- | --- | --- | --- | --- | --- | --- | --- | --- | --- | --- | --- | --- | --- | --- |
| Cc1cn([C@@H]2C[C@@H](O)[C@H](CO)O2)c(=O)[nH]c1=O [TELBIVUDINE] | >165 | – | – | – | – | – | – | – | – | – | – | – | – | – | – | – | – | – |
| O=C(Nc1ccc(F)cc1)N1CCn2ncc(-c3ccc(F)cc3)c2C1 | – | 124 nM | 55000 nM | 443 | 56 mL/min/kg | 14 mL/min/kg | < 1 µg/mL | – | – | – | – | – | – | – | – | – | – | half-life [8]: 0.36 h; Vd [9]: 2.1 L/kg; clearance [10]: 146 mL/min/kg; Cmax [11]: 407 ng/mL; AUC(0-inf) [12]: 208 ng·h/mL; AUC(0-inf) [13]: 276 ng·h/mL; bioavailability [14]: 44%; AUC(0-inf) [15]: 5110 ng·h/mL; Kp at 24 h [16]: 18.5 |
| C[C@H]1Cn2ncc(N3CCOCC3=O)c2CN1C(=O)Nc1ccc(F)c(Cl)c1 | – | 27 nM | > 100000 nM | > 3700 | 39 mL/min/kg | 7.1 mL/min/kg | 156 µg/mL (≈ 383 µM) | 2 h | 1.4 L/kg | 10 mL/min/kg | 1330 ng/mL | 3520 ng·h/mL | 4180 ng·h/mL | 48% | 10900 ng·h/mL | 2.6 | 0.31 | log(activity) (Hepatitis B virus [27]): 0.67; log(activity) (Hepatitis B virus [28]): 0.5; Activity (Hepatitis B virus [29]): inactive |
| C[C@H]1Cn2ncc(N3CCCC3=O)c2CN1C(=O)Nc1ccc(F)c(Cl)c1 | 1.9 | 36 nM | 94000 nM | 2600 | 50 mL/min/kg | 11 mL/min/kg | 330 µg/mL (≈ 842 µM) | – | – | – | – | – | – | – | – | – | – | Ratio EC50 [30]: 1.8; Ratio EC50 [31]: 2.6; Ratio EC50 [32]: 2.2; Ratio EC50 [33]: 2.2; Ratio EC50 [34]: 1.6; Ratio EC50 [35]: 2.1; Ratio EC50 [36]: 1.4; Ratio EC50 [37]: 2.2; Ratio EC50 [38]: 1.9; Ratio EC50 [39]: 2.4; Ratio EC50 [40]: 2.9; inhibition (Hepatitis B virus [41]): Dose-Dependent Effect; inhibition (Hepatitis B virus [42]): inactive; inhibition (Hepatitis B virus [43]): inactive |
| C[C@H]1Cn2ncc(N3CCCC3=O)c2CN1C(=O)Nc1cc(F)c(F)c(F)c1 | – | 42 nM | > 100000 nM | > 2380 | 29 mL/min/kg | 6.5 mL/min/kg | 430 µg/mL (≈ 1090 µM) | 1 h | 1 L/kg | 13.7 mL/min/kg | 1130 ng/mL | 2440 ng·h/mL | 2640 ng·h/mL | 43% | 8550 ng·h/mL | 3.2 | 0.18 | – |

Reference: ChEMBL document CHEMBL5370611, “Discovery of 4,5,6,7-Tetrahydropyrazolo[1.5-a]pyrizine Derivatives as Core Protein Allosteric Modulators (CpAMs) for the Inhibition of Hepatitis B Virus” (J Med Chem, 2023)
